From patent US10287252B2, “Inhibitors of tryptophan-2,3-dioxygenase or indoleamine-2,3-dioxygenase” (IOmet Pharma Ltd., priority 2014, dated 2019)

Columns and labels:
TDO = TDO (Homo sapiens, UniProt P48775); test: A172 Kynurenine cell based assay; parameters: This assay utilised cancer cells which expressed either TDO or IDO; endogenous in cells; host or cells: A172 (human glioblastoma); conditions: A172 (human glioblastoma) cells, 500 μM L-tryptophan, 48 hours, kynurenine by Erhlich's reagent; for IC50: read-out: A172 Kynurenine cell based assay pIC50 (converted)
Chain of TDO (P48775 whole entry): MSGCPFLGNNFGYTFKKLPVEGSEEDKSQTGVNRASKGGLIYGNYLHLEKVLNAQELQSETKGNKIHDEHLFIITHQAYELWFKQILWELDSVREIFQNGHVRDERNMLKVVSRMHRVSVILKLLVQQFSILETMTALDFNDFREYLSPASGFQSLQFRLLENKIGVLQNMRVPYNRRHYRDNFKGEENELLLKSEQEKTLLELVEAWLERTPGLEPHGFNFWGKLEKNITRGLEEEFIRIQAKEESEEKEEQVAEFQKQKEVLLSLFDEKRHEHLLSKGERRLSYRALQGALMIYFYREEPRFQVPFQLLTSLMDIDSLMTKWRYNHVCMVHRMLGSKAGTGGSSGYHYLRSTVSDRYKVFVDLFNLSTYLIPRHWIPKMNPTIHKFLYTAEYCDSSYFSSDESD
Experimental: (§1) Exemplary compounds of the invention were prepared, and tested to determine their effect as TDO and/or IDO inhibitors. Two different assays were employed: 1. a cell-based assay for detecting the effect of test compounds on kynurenine production in two different cancer cell types. This assay utilised cancer cells which expressed either TDO or IDO and as such was used as a means of testing compound activity at these two enzymes in a cell-based context. 2. a TDO and IDO biochemical coupled assay which utilised recombinantly produced and purified TDO and IDO enzymes in combination with the enzyme formamidase. This coupled enzyme system allowed conversion of N-formylkynurenine produced by TDO or IDO activity to kynurenine which was then quantified by fluorescence following addition of Erhlich's Reagent The protocols for these are set out below.
(§2) Cell Based Assay for Detection of Kynurenine Produced by TDO and/or IDO
(§3) A172 (human glioblastoma) and SKOV3 (human ovarian adenocarcinoma) cells were seeded in a 96 well plate at 30,000 or 40,000 cells per well respectively in phenol red-free RPMI supplemented with 10% FCS, 2 mM L-glutamine and 500 μM L-tryptophan. IDO expression was induced in the SKOV3 cells by the addition of 500 ng/ml IFN-γ. Cells were incubated at 37° C. with or without the addition of test compound. After 48 hours, the cells were removed by centrifugation and Erhlich's reagent was added to the supernatant. The Erhlich's reagent was incubated for 5 minutes before the absorbance was read at 490 nm.

IDO = IDO (Homo sapiens, UniProt P14902); test: SKOV3 Kynurenine cell based assay; parameters: IDO expression was induced in the SKOV3 cells by the addition of 500 ng/ml IFN-γ; endogenous in cells; host or cells: SKOV3 (human ovarian adenocarcinoma), induced with IFN-γ; conditions: SKOV3 (human ovarian adenocarcinoma) cells, IDO induced by 500 ng/ml IFN-γ, 500 μM L-tryptophan, 48 hours; for IC50: read-out: SKOV3 Kynurenine cell based assay pIC50 (converted)
Chain of IDO (P14902 whole entry): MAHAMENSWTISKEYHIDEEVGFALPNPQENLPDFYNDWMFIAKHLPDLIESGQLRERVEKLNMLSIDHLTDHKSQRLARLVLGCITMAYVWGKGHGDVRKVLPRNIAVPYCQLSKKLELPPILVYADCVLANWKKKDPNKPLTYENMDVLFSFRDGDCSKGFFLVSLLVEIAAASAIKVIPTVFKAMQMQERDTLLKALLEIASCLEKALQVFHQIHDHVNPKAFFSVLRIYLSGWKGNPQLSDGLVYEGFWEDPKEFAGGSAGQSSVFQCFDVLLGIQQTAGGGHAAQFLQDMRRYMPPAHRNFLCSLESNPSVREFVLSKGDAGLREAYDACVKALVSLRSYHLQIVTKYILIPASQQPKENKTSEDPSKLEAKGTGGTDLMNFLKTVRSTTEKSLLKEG
Experimental: as §1, §2, §3

Compound | A172 Kynurenine cell based assay pIC50 (TDO) | SKOV3 Kynurenine cell based assay pIC50 (IDO) | IC50 (TDO) [µM] | IC50 (IDO) [µM]
CC(C)CS(=O)(=O)N(c1cccc2cnccc12)S(=O)(=O)CC(C)C [Compound 5] | +/− (+/− = pIC50 <4.00) | + (+ = pIC50 4.00-4.49) |  | 
O=C(Nc1cccc2cnccc12)c1ccccc1 [Compound 7] | +/− (+/− = pIC50 <4.00) | + (+ = pIC50 4.00-4.49) |  | 
CN1CCOC(C(=O)Nc2cccc3cnccc23)C1 (stereo not drawn) [Compound 8] | ++ (++ = pIC50 4.50-5.49) | ++ (++ = pIC50 4.50-5.49) |  | 
Cc1ccc(S(=O)(=O)Nc2cccc3cnccc23)cc1 [Compound 10] | +/− (+/− = pIC50 <4.00) | ++ (++ = pIC50 4.50-5.49) |  | 
O=S(=O)(Nc1cccc2cnccc12)c1ccccc1Cl [Compound 11] | ++ (++ = pIC50 4.50-5.49) | ++ (++ = pIC50 4.50-5.49) |  | 
O=S(=O)(Nc1cccc2cnccc12)c1ccc(Cl)cc1 [Compound 12] | ++ (++ = pIC50 4.50-5.49) | ++ (++ = pIC50 4.50-5.49) |  | 
O=S(=O)(Nc1cccc2cnccc12)c1cccc(Cl)c1 [Compound 13] | ++ (++ = pIC50 4.50-5.49) | ++ (++ = pIC50 4.50-5.49) |  | 
CCCS(=O)(=O)Nc1cccc2cnccc12 [Compound 15] | ++ (++ = pIC50 4.50-5.49) | +/− (+/− = pIC50 <4.00) |  | 
Cc1cccc(S(=O)(=O)Nc2cccc3cnccc23)c1 [Compound 17] | +++ (+++ = pIC50 ≥5.50) | ++ (++ = pIC50 4.50-5.49) |  | 
COc1ccc(S(=O)(=O)Nc2cccc3cnccc23)cc1OC [Compound 18] | +/− (+/− = pIC50 <4.00) | + (+ = pIC50 4.00-4.49) |  | 
O=S(=O)(Nc1cccc2cnccc12)c1ccc2c(c1)OCCO2 [Compound 19] | +++ (+++ = pIC50 ≥5.50) | +++ (+++ = pIC50 ≥5.50) |  | 
O=S(=O)(Nc1cccc2cnccc12)c1ccc(-c2ccccc2)cc1 [Compound 20] | +++ (+++ = pIC50 ≥5.50) | +++ (+++ = pIC50 ≥5.50) |  | 
O=S(=O)(Nc1cccc2cnccc12)c1ccccc1F [Compound 21] | ++ (++ = pIC50 4.50-5.49) | ++ (++ = pIC50 4.50-5.49) |  | 
O=S(=O)(Nc1cccc2cnccc12)c1ccc(F)cc1 [Compound 22] | +++ (+++ = pIC50 ≥5.50) | + (+ = pIC50 4.00-4.49) |  | 
O=S(=O)(Nc1cccc2cnccc12)c1ccc(F)cc1F [Compound 23] | +/− (+/− = pIC50 <4.00) | + (+ = pIC50 4.00-4.49) |  | 
CC(=O)Nc1ccc(S(=O)(=O)Nc2cccc3cnccc23)cc1 [Compound 24] | +/− (+/− = pIC50 <4.00) | ++ (++ = pIC50 4.50-5.49) |  | 
O=S(=O)(Nc1cccc2cnccc12)c1cccc(OC(F)F)c1 [Compound 26] | +++ (+++ = pIC50 ≥5.50) | ++ (++ = pIC50 4.50-5.49) |  | 
Cc1ccccc1S(=O)(=O)Nc1cccc2cnccc12 [Compound 27] | +++ (+++ = pIC50 ≥5.50) | ++ (++ = pIC50 4.50-5.49) |  | 
CN1CCOc2cc(S(=O)(=O)Nc3cccc4cnccc34)ccc21 [Compound 28] |  |  | ≤ 3.16 | 3.24 to 31.6
O=S(=O)(Nc1cccc2cnccc12)c1ccc(Cl)s1 [Compound 29] | ++ (++ = pIC50 4.50-5.49) | ++ (++ = pIC50 4.50-5.49) |  | 

Compound | A172 Kynurenine cell based assay pIC50 (TDO) | SKOV3 Kynurenine cell based assay pIC50 (IDO) | IC50 (TDO) [µM] | IC50 (IDO) [µM]
O=S(=O)(Nc1cccc2cnccc12)c1cccc2cccnc12 [Compound 30] | +/− (+/− = pIC50 <4.00) | + (+ = pIC50 4.00-4.49) |  | 
CC(C)Oc1ccc(S(=O)(=O)Nc2cccc3cnccc23)cc1 [Compound 31] | +/− (+/− = pIC50 <4.00) | +++ (+++ = pIC50 ≥5.50) |  | 
O=C(Nc1ccc2cnccc2c1)c1ccccc1 [Compound 32] | +/− (+/− = pIC50 <4.00) | + (+ = pIC50 4.00-4.49) |  | 
O=C(Nc1cncc2ccccc12)c1ccccc1 [Compound 33] | +/− (+/− = pIC50 <4.00) | + (+ = pIC50 4.00-4.49) |  | 
CS(=O)(=O)c1ccc(S(=O)(=O)Nc2cccc3cnccc23)cc1 [Compound 34] | +/− (+/− = pIC50 <4.00) | + (+ = pIC50 4.00-4.49) |  | 
COc1ccc(S(=O)(=O)Nc2cccc3cnccc23)cc1 [Compound 35] | +++ (+++ = pIC50 ≥5.50) | ++ (++ = pIC50 4.50-5.49) |  | 
N#Cc1ccccc1S(=O)(=O)Nc1cccc2cnccc12 [Compound 36] | +/− (+/− = pIC50 <4.00) | + (+ = pIC50 4.00-4.49) |  | 
CC(C)S(=O)(=O)Nc1cccc2cnccc12 [Compound 37] | + (+ = pIC50 4.00-4.49) | +/− (+/− = pIC50 <4.00) |  | 
O=S(=O)(Nc1cncc2ccccc12)c1ccccc1 [Compound 38] | + (+ = pIC50 4.00-4.49) | + (+ = pIC50 4.00-4.49) |  | 
O=S(=O)(Nc1ccc2cnccc2c1)c1ccccc1 [Compound 39] | +/− (+/− = pIC50 <4.00) | + (+ = pIC50 4.00-4.49) |  | 
Nc1nccc2c(NS(=O)(=O)c3ccccc3)cccc12 [Compound 40] | + (+ = pIC50 4.00-4.49) | + (+ = pIC50 4.00-4.49) |  | 
CC(=O)Nc1cc2c(NS(=O)(=O)c3ccccc3)cccc2cn1 [Compound 41] | +/− (+/− = pIC50 <4.00) | + (+ = pIC50 4.00-4.49) |  | 
CN(c1ccccc1)S(=O)(=O)c1cccc2cnccc12 [Compound 42] | + (+ = pIC50 4.00-4.49) | + (+ = pIC50 4.00-4.49) |  | 
O=C(Nc1ccccc1)c1cccc2cnccc12 [Compound 43] | +/− (+/− = pIC50 <4.00) | + (+ = pIC50 4.00-4.49) |  | 
O=S(=O)(Nc1ccccc1)c1cccc2cnccc12 [Compound 44] | + (+ = pIC50 4.00-4.49) | ++ (++ = pIC50 4.50-5.49) |  | 
CS(=O)(=O)N1CCN(c2cccc3cnccc23)CC1 [Compound 45, 5-(4-(methylsulfonyl)piperazin-1-yl)isoquinoline] |  |  | > 100 | 32.4 to 100
O=S(=O)(Nc1ccc(Cl)cc1)c1cccc2cnccc12 [Compound 46] | + (+ = pIC50 4.00-4.49) | ++ (++ = pIC50 4.50-5.49) |  | 
O=S(=O)(Nc1ccc(-c2ccccc2)cc1)c1cccc2cnccc12 [Compound 47] | ++ (++ = pIC50 4.50-5.49) | ++ (++ = pIC50 4.50-5.49) |  | 
CC(=O)N1CCN(c2cccc3cnccc23)CC1 [Compound 48] | +/− (+/− = pIC50 <4.00) | + (+ = pIC50 4.00-4.49) |  | 
